Measurements published in US20220235011A1, “PHTHALAZINONE COMPOUNDS AND USE THEREOF” (ST PHARM CO., LTD., priority 2019, published 2022).

Each compound was assayed against T1, Sirt6 (Homo sapiens, UniProt Q8N6T7) (assay: Measurement of Sirt6 Activity (CycLex Sirt6 Deacetylase Fluorometric Assay Kit)). Settings: compound at 10 μM; fluorescence relative to the group without compound treatment (positive control group).
T1 construct: purchased CycLex CY-1156V2
Assay type: biochemical
Procedure, shortened: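 Recombinant Sirt6 with fluoro-labelled acetyl-lysine peptide, NAD and lysylendopeptidase developer, compound added from 10× stock in PBS; 1 h at room temperature. Fluorescence read at ex 490/em 530 nm; activation expressed as fluorescence ratio relative to enzyme without compound.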

T1 sequence (Q8N6T7 whole entry): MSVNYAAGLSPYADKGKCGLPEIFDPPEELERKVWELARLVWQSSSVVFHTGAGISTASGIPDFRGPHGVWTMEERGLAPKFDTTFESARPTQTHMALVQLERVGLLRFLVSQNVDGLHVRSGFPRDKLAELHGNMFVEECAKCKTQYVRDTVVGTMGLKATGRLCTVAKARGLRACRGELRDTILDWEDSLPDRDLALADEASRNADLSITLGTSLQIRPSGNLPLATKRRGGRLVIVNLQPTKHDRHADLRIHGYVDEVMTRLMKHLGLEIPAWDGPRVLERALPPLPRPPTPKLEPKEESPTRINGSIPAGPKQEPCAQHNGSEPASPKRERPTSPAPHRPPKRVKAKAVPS

Row | Sirt6 Activity (% activity, 10 μM) [% activity] | SMILES
1 | 180 | CN(C)S(=O)(=O)c1cccc(-c2nn(-c3ccc(F)cc3)c(=O)c3ccccc23)c1 [Example 88, 3-(3-(4-Fluorophenyl)-4-oxo-3,4-dihydrophthalazin-1-yl)-N,N-dimethylbenzene Sulfonamide]
2 | 339 | CS(=O)(=O)c1cccc(-c2nn(-c3ccc(F)cc3F)c(=O)c3ccccc23)c1 [Example 89, 2-(2,4-Difluorophenyl)-4-(3-(methylsulfonyl)phenyl)phthalazin-1 (2H)-one]
3 | 272 | CNS(=O)(=O)c1cccc(-c2nn(-c3ccc(F)cc3F)c(=O)c3ccccc23)c1 [Example 91, 3-(3-(2,4-Difluorophenyl)-4-oxo-3,4-dihydrophthalazin-1-yl)-N-methylbenzene Sulfonamide]
4 | 208 | CCNS(=O)(=O)c1cccc(-c2nn(-c3ccc(F)cc3F)c(=O)c3ccccc23)c1 [Example 92, 3-(3-(2,4-Difluorophenyl)-4-oxo-3,4-dihydrophthalazin-1-yl)-N-ethylbenzene Sulfonamide]
5 | 227 | CN(C)S(=O)(=O)c1cccc(-c2nn(-c3ccc(F)cc3F)c(=O)c3ccccc23)c1 [Example 93, 3-(3-(2,4-Difluorophenyl)-4-oxo-3,4-dihydrophthalazin-1-yl)-N,N-dimethylbenzene Sulfonamide]
6 | 272 | C/[N+]([O-])=C/c1cccc(-c2nn(-c3ccccc3F)c(=O)c3ccccc23)c1 [Example 94, (Z)-1-(3-(3-(2-Fluorophenyl)-4-oxo-3,4-dihydrophthalazin-1-yl)phenyl)-N-methyl Methanimine Oxide]
7 | 264 | CCS(=O)(=O)c1cccc(-c2nn(-c3ccccc3F)c(=O)c3ccccc23)c1 [Example 98, 4-(3-(Ethylsulfonyl)phenyl)-2-(2-fluorophenyl)phthalazin-1(2H)-one]
8 | 259 | CNS(=O)(=O)c1cccc(-c2nn(-c3ccccc3F)c(=O)c3ccccc23)c1 [Example 99, 3-(3-(2-Fluorophenyl)-4-oxo-3,4-dihydrophthalazin-1-yl)-N-methylbenzenesulfonamide]
9 | 196 | CCNS(=O)(=O)c1cccc(-c2nn(-c3ccccc3F)c(=O)c3ccccc23)c1 [Example 100, N-Ethyl-3-(3-(2-fluorophenyl)-4-oxo-3,4-dihydrophthalazin-1-yl)benzenesulfonamide]
10 | 153 | CN(C)S(=O)(=O)c1cccc(-c2nn(-c3ccccc3F)c(=O)c3ccccc23)c1 [Example 101, 3-(3-(2-Fluorophenyl)-4-oxo-3,4-dihydrophthalazin-1-yl)-N,N-dimethylbenzene Sulfonamide]
11 | 206 | C/[N+]([O-])=C/c1cccc(-c2nn(-c3c(F)cccc3F)c(=O)c3ccccc23)c1 [Example 102, (Z)-1-(3-(3-(2,6-Difluorophenyl)-4-oxo-3,4-dihydrophthalazin-1-yl)phenyl)-N-methylmethanimine Oxide]
12 | 226 | CS(=O)(=O)c1cccc(-c2nn(-c3c(F)cccc3F)c(=O)c3ccccc23)c1 [Example 105, 2-(2,6-Difluorophenyl)-4-(3-(methylsulfonyl)phenyl)phthalazin-1 (2H)-one]
13 | 233 | CNS(=O)(=O)c1cccc(-c2nn(-c3c(F)cccc3F)c(=O)c3ccccc23)c1 [Example 107, 3-(3-(2,6-Difluorophenyl)-4-oxo-3,4-dihydrophthalazin-1-yl)-N-methylbenzenesulfonamide]
14 | 188 | CN(C)S(=O)(=O)c1cccc(-c2nn(-c3c(F)cccc3F)c(=O)c3ccccc23)c1 [Example 109, 3-(3-(2,6-Difluorophenyl)-4-oxo-3,4-dihydrophthalazin-1-yl)-N,N-dimethylbenzenesulfonamide]
15 | 126 | CNS(=O)(=O)c1cccc(-c2nn(-c3ccccc3)c(=O)c3ccc(F)cc23)c1 [Example 111, 3-(7-Fluoro-4-oxo-3-phenyl-3,4-dihydrophthalazin-1-yl)-N-methylbenzenesulfonamide]
16 | 116 | CNS(=O)(=O)c1cccc(-c2nn(-c3ccccc3)c(=O)c3cc(F)ccc23)c1 [Example 113, 3-(6-Fluoro-4-oxo-3-phenyl-3,4-dihydrophthalazin-1-yl)-N-methylbenzenesulfonamide]
17 | 226 | O=c1c2ccccc2c(-c2ccc[n+]([O-])c2)nn1-c1ccc(F)cc1 [Example 114, 3-(3-(4-Fluorophenyl)-4-oxo-3,4-dihydrophthalazin-1-yl)pyridine 1-oxide]
18 | 405 | O=c1c2ccccc2c(-c2cccnc2)nn1-c1ccc(F)cc1F [Example 115, 2-(2,4-Difluorophenyl)-4-(pyridin-3-yl)phthalazin-1(2H)-one]
19 | 178 | CS(=O)(=O)c1cccc(-c2nn(-c3ccc(F)cc3F)c(=O)c3cc(F)ccc23)c1 [Example 120, 2-(2,4-Difluorophenyl)-7-fluoro-4-(3-(methylsulfonyl)phenyl)phthalazin-1(2H)-one]
20 | 253 | CCS(=O)(=O)c1cccc(-c2nn(-c3ccc(F)cc3F)c(=O)c3ccc(F)cc23)c1 [Example 123, 2-(2,4-Difluorophenyl)-4-(3-(ethylsulfonyl)phenyl)-6-fluorophthalazin-1(2H)-one]

The remaining lines, values behind:

Row | SMILES | Sirt6 Activity (% activity, 10 μM) [% activity]
21 | CCS(=O)(=O)c1cccc(-c2nn(-c3ccc(F)cc3F)c(=O)c3ccccc23)c1 [Example 90, 2-(2,4-Difluorophenyl)-4-(3-(ethylsulfonyl)phenyl)phthalazin-1(2H)-one] | 283
22 | CC(C)/[N+]([O-])=C/c1cccc(-c2nn(-c3ccccc3F)c(=O)c3ccccc23)c1 [Example 95, (Z)-1-(3-(3-(2-Fluorophenyl)-4-oxo-3,4-dihydrophthalazin-1-yl)phenyl)-N-isopropyl Methanimine Oxide] | 133
23 | CC(C)(C)/[N+]([O-])=C/c1cccc(-c2nn(-c3ccccc3F)c(=O)c3ccccc23)c1 [Example 96, (Z)—N-tert-Butyl-1-(3-(3-(2-fluorophenyl)-4-oxo-3,4-dihydrophthalazin-1-yl)phenyl)methanimine Oxide] | 176
24 | CS(=O)(=O)c1cccc(-c2nn(-c3ccccc3F)c(=O)c3ccccc23)c1 [Example 97, 2-(2-Fluorophenyl)-4-(3-(methylsulfonyl)phenyl)phthalazin-1(2H)-one] | 286
25 | CC(C)/[N+]([O-])=C/c1cccc(-c2nn(-c3c(F)cccc3F)c(=O)c3ccccc23)c1 [Example 103, (Z)-1-(3-(3-(2,6-Difluorophenyl)-4-oxo-3,4-dihydrophthalazin-1-yl)phenyl)-N-isopropylmethanimine Oxide] | 324
26 | CC(C)(C)/[N+]([O-])=C/c1cccc(-c2nn(-c3c(F)cccc3F)c(=O)c3ccccc23)c1 [Example 104, (Z)—N-tert-Butyl-1-(3-(3-(2,6-difluorophenyl)-4-oxo-3,4-dihydrophthalazin-1-yl)phenyl)methanimine Oxide] | 284
27 | CCS(=O)(=O)c1cccc(-c2nn(-c3c(F)cccc3F)c(=O)c3ccccc23)c1 [Example 106, 2-(2,6-Difluorophenyl)-4-(3-(ethylsulfonyl)phenyl)phthalazin-1(2H)-one] | 141
28 | CCNS(=O)(=O)c1cccc(-c2nn(-c3c(F)cccc3F)c(=O)c3ccccc23)c1 [Example 108, 3-(3-(2,6-Difluorophenyl)-4-oxo-3,4-dihydrophthalazin-1-yl)-N-ethylbenzenesulfonamide] | 209
29 | CS(=O)(=O)c1cccc(-c2nn(-c3ccccc3)c(=O)c3ccc(F)cc23)c1 [Example 110, 6-Fluoro-4-(3-(methylsulfonyl)phenyl)-2-phenylphthalazin-1(2H)-one] | 129
30 | CS(=O)(=O)c1cccc(-c2nn(-c3ccccc3)c(=O)c3cc(F)ccc23)c1 [Example 112, 7-Fluoro-4-(3-(methylsulfonyl)phenyl)-2-phenylphthalazin-1(2H)-one] | 103
31 | O=c1c2ccccc2c(-c2cccnc2)nn1-c1c(F)cccc1F [Example 116, 2-(2,6-Difluorophenyl)-4-(pyridin-3-yl)phthalazin-1(2H)-one] | 227
32 | O=c1c2ccccc2c(-c2ccc[n+]([O-])c2)nn1-c1ccc(F)cc1F [Example 117, 3-(3-(2,4-Difluorophenyl)-4-oxo-3,4-dihydrophthalazin-1-yl)pyridine 1-oxide] | 318
33 | O=c1c2ccccc2c(-c2ccc[n+]([O-])c2)nn1-c1c(F)cccc1F [Example 118, 3-(3-(2,6-Difluorophenyl)-4-oxo-3,4-dihydrophthalazin-1-yl)pyridine 1-oxide] | 231
34 | CS(=O)(=O)c1cccc(-c2nn(-c3ccc(F)cc3F)c(=O)c3ccc(F)cc23)c1 [Example 119, 2-(2,4-Difluorophenyl)-6-fluoro-4-(3-(methylsulfonyl)phenyl)phthalazin-1(2H)-one] | 166
35 | CNS(=O)(=O)c1cccc(-c2nn(-c3ccc(F)cc3F)c(=O)c3ccc(F)cc23)c1 [Example 121, 3-(3-(2,4-Difluorophenyl)-7-fluoro-4-oxo-3,4-dihydrophthalazin-1-yl)-N-methylbenzenesulfonamide] | 157
36 | CNS(=O)(=O)c1cccc(-c2nn(-c3ccc(F)cc3F)c(=O)c3cc(F)ccc23)c1 [Example 122, 3-(3-(2,4-Difluorophenyl)-6-fluoro-4-oxo-3,4-dihydrophthalazin-1-yl)-N-methylbenzenesulfonamide] | 177
